In ChEMBL document CHEMBL4152232, “Design, synthesis and pharmacological evaluation of ALK and Hsp90 dual inhibitors bearing resorcinol and 2,4-diaminopyrimidine motifs” (Eur J Med Chem, 2018):
Calls of active or inactive are those of the source. The rule behind the calls is not given here.

Columns and labels:
[1] = target: ALK tyrosine kinase receptor (Homo sapiens, UniProt Q9UM73); assay: Inhibition of recombinant ALK (unknown origin) using poly (Glu,Tyr)4:1 as substrate after 60 mins by ELISA
[2] = target: Heat shock protein HSP 90-alpha (Homo sapiens, UniProt P07900); assay: Inhibition of FITC-labeled geldanamycin binding to recombinant HSP90alpha (unknown origin) after 1 hr by fluorescence polarization assay
[3] = system: NCI-H3122; assay: Antiproliferative activity against human NCI-H3122 cells after 72 hrs by SRB assay; type: functional, cell-based; settings: NCI-H3122, 72 h
[4] = target: ALK tyrosine kinase receptor (Homo sapiens, UniProt Q9UM73, L1196M); assay: Inhibition of ALK L1196M mutant (unknown origin) using poly (Glu,Tyr)4:1 as substrate after 60 mins by ELISA
[5] = target: ALK tyrosine kinase receptor (Homo sapiens, UniProt Q9UM73, G1202R); assay: Inhibition of ALK G1202R mutant (unknown origin) using poly (Glu,Tyr)4:1 as substrate after 60 mins by ELISA
[6] = system: A549; assay: Antiproliferative activity against human A549 cells after 72 hrs by SRB assay; type: functional, cell-based; settings: A549, 72 h
[7] = system: NCI-H460; assay: Antiproliferative activity against human NCI-H460 cells after 72 hrs by SRB assay; type: functional, cell-based; settings: NCI-H460, 72 h
[8] = system: HCT-116; assay: Antiproliferative activity against human HCT116 cells after 72 hrs by SRB assay; type: functional, cell-based; settings: HCT-116, 72 h
[9] = system: BT-474; assay: Antiproliferative activity against human BT474 cells after 72 hrs by SRB assay; type: functional, cell-based; settings: BT-474, 72 h
[10] = system: MDA-MB-231; assay: Antiproliferative activity against human MDA-MB-231 cells after 72 hrs by SRB assay; type: functional, cell-based; settings: MDA-MB-231, 72 h
[11] = system: DU-145; assay: Antiproliferative activity against human DU145 cells after 72 hrs by SRB assay; type: functional, cell-based; settings: DU-145, 72 h
[12] = system: NCI-N87; assay: Antiproliferative activity against human NCI-N87 cells after 72 hrs by SRB assay; type: functional, cell-based; settings: NCI-N87, 72 h
[13] = system: U-87 MG; assay: Antiproliferative activity against human U87MG cells after 72 hrs by SRB assay; type: functional, cell-based, U-87MG ATCC
[14] = system: EBC-1; assay: Antiproliferative activity against human EBC1 cells after 72 hrs by SRB assay; type: functional, cell-based; settings: EBC-1, 72 h
[15] = Antiproliferative activity against human EBC1/SR cells after 72 hrs by SRB assay; type: functional, cell-based
[16] = target: T1, Heat shock protein HSP90 (Homo sapiens) (UniProt P07900+P08238); assay: Inhibition of Hsp90 in human NCI-H3122 cells assessed as decrease in ALK phosphorylation at Tyr1278 residues up to 1000 nM after 24 hrs by Western blot analysis; type: cell-based
[17] = target: T1, Heat shock protein HSP90 (Homo sapiens); assay: Inhibition of Hsp90 in human NCI-H3122 cells assessed as decrease in AKT phosphorylation at Ser473 residues up to 1000 nM after 24 hrs by Western blot analysis; type: cell-based
[18] = target: T1, Heat shock protein HSP90 (Homo sapiens); assay: Inhibition of Hsp90 in human NCI-H3122 cells assessed as decrease in ERK1/2 phosphorylation up to 1000 nM after 24 hrs by Western blot analysis; type: cell-based
[19] = target: T1, Heat shock protein HSP90 (Homo sapiens); assay: Inhibition of Hsp90 in human NCI-H3122 cells assessed as upregulation of Hsp70 after 24 hrs by Western blot analysis; type: cell-based

ALK tyrosine kinase receptor (Homo sapiens, UniProt Q9UM73, L1196M), sequence (Q9UM73 19-1620 L1196M limits assumed): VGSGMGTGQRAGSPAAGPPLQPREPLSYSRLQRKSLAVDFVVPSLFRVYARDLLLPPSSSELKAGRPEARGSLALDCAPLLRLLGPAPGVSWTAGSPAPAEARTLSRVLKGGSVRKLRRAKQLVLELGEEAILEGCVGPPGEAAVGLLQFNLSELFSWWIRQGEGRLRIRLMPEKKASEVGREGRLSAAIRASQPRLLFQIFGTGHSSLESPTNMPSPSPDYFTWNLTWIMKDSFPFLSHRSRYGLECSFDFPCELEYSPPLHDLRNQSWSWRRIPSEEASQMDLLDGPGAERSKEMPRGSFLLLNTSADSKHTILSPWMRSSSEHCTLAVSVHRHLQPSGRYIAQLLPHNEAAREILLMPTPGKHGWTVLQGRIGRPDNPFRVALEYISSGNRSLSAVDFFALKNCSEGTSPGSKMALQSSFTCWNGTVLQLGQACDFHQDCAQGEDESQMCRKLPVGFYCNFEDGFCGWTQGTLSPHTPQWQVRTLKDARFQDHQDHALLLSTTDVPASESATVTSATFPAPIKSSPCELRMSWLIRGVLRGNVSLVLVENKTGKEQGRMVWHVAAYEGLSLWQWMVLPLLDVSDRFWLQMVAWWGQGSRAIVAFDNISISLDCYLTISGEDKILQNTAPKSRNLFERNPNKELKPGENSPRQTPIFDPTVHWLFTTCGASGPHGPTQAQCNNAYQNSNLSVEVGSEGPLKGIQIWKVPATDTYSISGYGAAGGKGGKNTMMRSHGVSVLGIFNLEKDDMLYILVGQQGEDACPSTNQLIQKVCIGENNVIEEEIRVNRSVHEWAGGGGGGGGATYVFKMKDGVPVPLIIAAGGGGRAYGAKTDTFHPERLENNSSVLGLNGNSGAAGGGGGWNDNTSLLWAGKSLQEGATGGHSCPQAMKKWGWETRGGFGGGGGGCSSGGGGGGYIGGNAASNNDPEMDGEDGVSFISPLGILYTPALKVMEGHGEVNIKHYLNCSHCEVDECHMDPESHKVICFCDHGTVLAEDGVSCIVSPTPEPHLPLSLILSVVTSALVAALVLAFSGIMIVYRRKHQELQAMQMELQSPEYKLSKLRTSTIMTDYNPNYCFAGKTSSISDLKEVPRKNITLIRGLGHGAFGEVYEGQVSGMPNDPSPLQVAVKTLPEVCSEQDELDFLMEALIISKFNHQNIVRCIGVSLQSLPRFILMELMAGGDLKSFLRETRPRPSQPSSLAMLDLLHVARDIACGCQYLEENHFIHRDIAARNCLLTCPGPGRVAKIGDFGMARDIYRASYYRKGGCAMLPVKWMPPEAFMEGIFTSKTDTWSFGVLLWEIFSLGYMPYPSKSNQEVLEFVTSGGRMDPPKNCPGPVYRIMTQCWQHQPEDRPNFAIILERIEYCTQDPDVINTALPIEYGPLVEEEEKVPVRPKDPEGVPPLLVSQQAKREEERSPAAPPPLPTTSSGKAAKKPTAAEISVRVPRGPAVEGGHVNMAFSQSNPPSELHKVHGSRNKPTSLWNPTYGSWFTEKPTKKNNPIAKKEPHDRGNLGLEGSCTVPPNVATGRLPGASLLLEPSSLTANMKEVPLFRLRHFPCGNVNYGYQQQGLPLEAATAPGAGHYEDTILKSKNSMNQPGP
ALK tyrosine kinase receptor (Homo sapiens, UniProt Q9UM73), sequence (Q9UM73 whole entry): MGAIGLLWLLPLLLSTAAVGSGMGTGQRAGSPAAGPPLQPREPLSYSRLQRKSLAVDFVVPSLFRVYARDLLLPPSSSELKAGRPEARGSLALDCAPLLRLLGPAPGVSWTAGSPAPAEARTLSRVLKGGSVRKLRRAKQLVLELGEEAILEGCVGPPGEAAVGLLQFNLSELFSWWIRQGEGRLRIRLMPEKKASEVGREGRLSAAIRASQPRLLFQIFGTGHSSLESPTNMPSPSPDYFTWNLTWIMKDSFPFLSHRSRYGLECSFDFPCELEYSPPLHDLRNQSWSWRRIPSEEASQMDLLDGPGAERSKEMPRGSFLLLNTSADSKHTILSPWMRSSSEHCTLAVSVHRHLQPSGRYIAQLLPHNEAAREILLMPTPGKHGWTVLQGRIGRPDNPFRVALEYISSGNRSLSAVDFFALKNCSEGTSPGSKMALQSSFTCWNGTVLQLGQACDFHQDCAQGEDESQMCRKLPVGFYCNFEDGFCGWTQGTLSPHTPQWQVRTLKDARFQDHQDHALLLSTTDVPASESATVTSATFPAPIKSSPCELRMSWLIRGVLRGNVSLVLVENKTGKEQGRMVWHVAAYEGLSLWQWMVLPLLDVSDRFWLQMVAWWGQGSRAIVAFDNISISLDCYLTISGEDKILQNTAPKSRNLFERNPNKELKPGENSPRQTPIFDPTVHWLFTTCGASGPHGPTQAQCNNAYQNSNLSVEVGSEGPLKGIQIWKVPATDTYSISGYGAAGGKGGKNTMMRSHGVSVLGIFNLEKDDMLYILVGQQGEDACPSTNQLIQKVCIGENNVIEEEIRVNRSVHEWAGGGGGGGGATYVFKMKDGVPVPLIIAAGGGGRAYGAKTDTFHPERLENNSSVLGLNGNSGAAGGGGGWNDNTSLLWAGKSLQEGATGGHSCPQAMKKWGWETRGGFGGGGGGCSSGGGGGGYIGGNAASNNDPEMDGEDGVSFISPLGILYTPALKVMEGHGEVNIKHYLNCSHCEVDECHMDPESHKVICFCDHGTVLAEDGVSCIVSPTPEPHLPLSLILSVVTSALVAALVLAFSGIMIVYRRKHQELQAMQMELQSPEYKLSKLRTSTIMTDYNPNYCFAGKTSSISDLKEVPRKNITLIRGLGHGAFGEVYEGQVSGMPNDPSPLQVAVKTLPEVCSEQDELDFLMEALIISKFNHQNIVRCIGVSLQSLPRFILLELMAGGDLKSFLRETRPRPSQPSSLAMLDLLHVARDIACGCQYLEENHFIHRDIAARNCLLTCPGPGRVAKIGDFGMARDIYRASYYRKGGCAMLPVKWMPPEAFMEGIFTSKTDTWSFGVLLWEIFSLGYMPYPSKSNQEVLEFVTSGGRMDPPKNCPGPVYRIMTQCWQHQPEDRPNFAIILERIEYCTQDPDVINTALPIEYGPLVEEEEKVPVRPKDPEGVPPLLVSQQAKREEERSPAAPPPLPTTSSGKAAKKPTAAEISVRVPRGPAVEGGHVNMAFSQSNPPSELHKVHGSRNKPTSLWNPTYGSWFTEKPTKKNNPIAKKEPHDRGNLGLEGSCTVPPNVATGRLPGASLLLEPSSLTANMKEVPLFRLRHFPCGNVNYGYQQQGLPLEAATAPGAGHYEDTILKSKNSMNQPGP
ALK tyrosine kinase receptor (Homo sapiens, UniProt Q9UM73, G1202R), sequence (Q9UM73 19-1620 G1202R limits assumed): as the sequence (Q9UM73 19-1620 L1196M limits assumed) above, with M1178L, G1184R counted along it

Structure (SMILES): CCNC(=O)c1noc(-c2cc(C(C)C)c(O)cc2O)c1-c1ccc(CN2CCN(CC(=O)Nc3ccc(OC)c(Nc4ncc(Cl)c(Nc5ccccc5S(=O)(=O)C(C)C)n4)c3)CC2)cc1
- IC50 [1]: 17.3 nM
- IC50 [2]: 100 nM
- IC50 [3]: 11 nM
- IC50 [4]: 6.2 nM
- IC50 [5]: 85.5 nM
- IC50 [6]: 287 nM
- IC50 [7]: 235 nM
- IC50 [8]: 82 nM
- IC50 [9]: 52 nM
- IC50 [10]: 104 nM
- IC50 [11]: 228 nM
- IC50 [12]: 503 nM
- IC50 [13]: 237 nM
- IC50 [14]: 47 nM
- IC50 [15]: 215 nM
- inhibition [16]: Active
- inhibition [17]: Active
- inhibition [18]: Active
- inhibition [19]: Dose-dependent effect

Structure (SMILES): CCNC(=O)c1noc(-c2cc(C(C)C)c(O)cc2O)c1-c1ccc(CN2CCOCC2)cc1 [LUMINESPIB]
- IC50 [3]: 12.4 nM
- IC50 [6]: 60 nM
- IC50 [7]: 23 nM
- IC50 [8]: 16 nM
- IC50 [9]: 14 nM
- IC50 [10]: 21 nM
- IC50 [11]: 21 nM
- IC50 [12]: 83 nM
- IC50 [13]: 31 nM
- IC50 [14]: 13 nM
- IC50 [15]: 30 nM

Structure (SMILES): CCNC(=O)c1noc(-c2cc(C(C)C)c(O)cc2O)c1-c1ccc(C(=O)N2CCN(CC(=O)Nc3cccc(Nc4ncc(Cl)c(Nc5ccccc5S(=O)(=O)C(C)C)n4)c3)CC2)cc1
- IC50 [1]: 22.9 nM
- IC50 [2]: 123 nM
- IC50 [3]: 113 nM

Structure (SMILES): CCNC(=O)c1noc(-c2cc(C(C)C)c(O)cc2O)c1-c1ccc(CN2CCN(CC(=O)NCC(=O)Nc3ccc(OC)c(Nc4ncc(Cl)c(Nc5ccccc5S(=O)(=O)C(C)C)n4)c3)CC2)cc1
- IC50 [1]: 6.9 nM
- IC50 [2]: 84.8 nM
- IC50 [3]: 46 nM
- IC50 [4]: 8.7 nM
- IC50 [5]: 36.4 nM
- IC50 [6]: 613 nM
- IC50 [7]: 624 nM
- IC50 [8]: 193 nM
- IC50 [9]: 60 nM
- IC50 [10]: 135 nM
- IC50 [11]: 367 nM
- IC50 [12]: 230 nM
- IC50 [13]: 205 nM
- IC50 [14]: 163 nM
- IC50 [15]: 495 nM

Structure (SMILES): CCNC(=O)c1noc(-c2cc(C(C)C)c(O)cc2O)c1-c1ccc(CNCC(=O)Nc2ccc(OC)c(Nc3ncc(Cl)c(Nc4ccccc4S(=O)(=O)C(C)C)n3)c2)cc1
- IC50 [1]: 24.2 nM
- IC50 [2]: 260 nM
- IC50 [3]: 57 nM

Structure (SMILES): COc1ccc(NC(=O)CNC(=O)CN2CCN(Cc3ccc4c(c3)CN(C(=O)c3cc(C(C)C)c(O)cc3O)C4)CC2)cc1Nc1ncc(Cl)c(Nc2ccccc2S(=O)(=O)C(C)C)n1
- IC50 [1]: 4.1 nM
- IC50 [2]: 47 nM
- IC50 [3]: 175 nM

Structure (SMILES): CCNC(=O)c1noc(-c2cc(C(C)C)c(O)cc2O)c1-c1ccc(C(=O)NCC(=O)Nc2ccc(OC)c(Nc3ncc(Cl)c(Nc4ccccc4S(=O)(=O)C(C)C)n3)c2)cc1
- IC50 [1]: 83.2 nM
- IC50 [2]: > 1000 nM
- IC50 [3]: 159 nM

Structure (SMILES): CC(C)c1cc(-c2onc(C(=O)NCC(=O)Nc3cccc(Nc4ncc(Cl)c(Nc5ccccc5S(=O)(=O)C(C)C)n4)c3)c2-c2ccc(CN3CCOCC3)cc2)c(O)cc1O
- IC50 [1]: 53.7 nM
- IC50 [2]: > 1000 nM
- IC50 [3]: 444 nM

Structure (SMILES): COc1ccc(Nc2ncc(Cl)c(Nc3ccccc3S(=O)(=O)C(C)C)n2)cc1NC(=O)CNC(=O)c1noc(-c2cc(C(C)C)c(O)cc2O)c1-c1ccc(CN2CCOCC2)cc1
- IC50 [1]: 958 nM
- IC50 [2]: > 1000 nM
- IC50 [3]: 319 nM

Structure (SMILES): COc1ccc(NC(=O)CN2CCN(Cc3ccc4c(c3)CN(C(=O)c3cc(C(C)C)c(O)cc3O)C4)CC2)cc1Nc1ncc(Cl)c(Nc2ccccc2S(=O)(=O)C(C)C)n1
- IC50 [1]: 9.8 nM
- IC50 [2]: 40 nM
- IC50 [3]: 13 nM
- IC50 [4]: 6 nM
- inhibition [16]: Active
- inhibition [17]: Active
- inhibition [18]: Active
- inhibition [19]: Dose-dependent effect

Structure (SMILES): CCNC(=O)c1noc(-c2cc(C(C)C)c(O)cc2O)c1-c1ccc(CNCC(=O)Nc2cccc(Nc3ncc(Cl)c(Nc4ccccc4S(=O)(=O)C(C)C)n3)c2)cc1
- IC50 [1]: 10.3 nM
- IC50 [2]: 370 nM
- IC50 [3]: 141 nM

Structure (SMILES): COc1ccc(NC(=O)CNC(=O)c2noc(-c3cc(C(C)C)c(O)cc3O)c2-c2ccc(CN3CCOCC3)cc2)cc1Nc1ncc(Cl)c(Nc2ccccc2S(=O)(=O)C(C)C)n1
- IC50 [1]: 108 nM
- IC50 [2]: > 1000 nM
- IC50 [3]: 587 nM

Structure (SMILES): CC(C)c1cc(C(=O)N2Cc3ccc(CN4CCN(C)CC4)cc3C2)c(O)cc1O [ONALESPIB]
- IC50 [2]: 13.6 nM
- IC50 [3]: 52 nM
